Ends that are not written are not given here.
Key:
Caenorhabditis elegans [1] = assay type: in vivo; details: for effect on lifespan / increase in fecundity (number of offspring): 1 μM in aqueous medium each day; for increase in fecundity (number of offspring): over lifespan
Description: (For methodology see Davies, K. G & Hart, J. E, Nematology, 10, 103-112, 2008).
The first six amino acids of the micrin peptide fragment of SEQ ID NO: 9 are MKPLTG (SEQ ID NO: 26). These have been synthesized as a 6 mer. […] Thus the fecundity-enhancing effect is retained even if 8 of the 14 amino acids are removed, potentially identifying an active motif. To optimise this 6 mer further, amino acid substitutions have been made, while retaining the proline at position 3.

[2] = system: human bone marrow stem cells; assay: Human bone marrow stem cell proliferation in vitro; assay type: cell-based; details: 1 μM in the medium, 24 h
Protocol: (§1) Micrin activity has been determined by means of a suitable in vitro assay, for example the breast cancer cell viability assay described above in Section 4 with reference to FIG. 4. A useful assay in support of molecular optimisation involves adult rat bone marrow stem cells in culture, with α-MEMS as cell medium and manual assessments of cell numbers and morphology using time-lapse video photography over 24 h. In one study, untreated control cells increased in number by 50%. An increase of just under 20% was also seen with the 14 mer peptide SEQ ID NO: 9, administered at 10 μg/ml of medium.
To investigate the stop growing aspect of the hypothesized micrin puberty signal, the proline-containing 6 mers have been administered to human bone marrow stem cells in an in vitro assay (see 6a), at a concentration in the medium of 1 μM.

human dental pulp cells = assay: Dental pulp cell proliferation (Cyquant); assay type: cell-based; details: for anti-proliferative activity: 5 μM in the cell medium, seeding 5.0×10^3 cells/ml
[3] = system: PC3 prostate cancer cells; assay: Tumour cell viability, Alamar Blue; assay type: cell-based; details: 48 hours; mean n = 3, SEMs < 5%; camptothecin at 3 μmol
Protocol: (§2) The effects of micrin on viability of tumour cells were determined using MCF7 breast cancer cells and PC3 prostate cancer cells. Cells were plated out to provide 2×10^4 cells in 2 cm^2 wells in Dulbecco's modified Eagles medium (DMEM) containing 10% foetal calf serum (FCS), antibiotics and a stabilised substitute for glutamine (Glutamax, Invitrogen UK). The cells were allowed to attach overnight. The medium was removed and the cells were washed several times with fresh medium, and then treated with test or control samples diluted in medium.
(§3) Test and control samples were produced according to an ion exchange method using 120 ml sheep ovarian follicular fluid as the starting material. Follicular fluid obtained by aspiration of abattoir-derived sheep ovaries was centrifuged at +4° C. and 2000 g for 10 minutes, then spun through Amicon Centriprep-30 cartridges at 1800 g to give a nominal 0-30 kD fraction. This fraction was spun through Amicon Centriprep-3 cartridges to give a nominal 3-30 kD sub-fraction. […]
(§4) Camptothecin, an inducer of apoptosis, was used as a positive control at 3 μmol. After 48 hours the medium was changed for fresh medium and the number of remaining viable cells was quantitated using Alamar Blue. The number of viable cells in the micrin and camptothecin samples were expressed as a percentage of the number of viable cells in the micrin-free control samples. […]

MCF7 breast cancer cells = assay: Tumour cell viability, Alamar Blue; assay type: cell-based, human; details: 48 hours; mean n = 3, SEMs < 5%; camptothecin at 3 μmol
Protocol: as §2, §3, §4

Caenorhabditis elegans [4] = details: Davies & Hart, Nematology 2008; cited from earlier work
[5] = system: adult rat bone marrow stem cells; assay: Adult rat bone marrow stem cells in culture, cell numbers by time-lapse video over 24 h; assay type: cell-based
Protocol: Polyclonal antibodies were raised in the same manner using goats instead of rabbits, with Peptide 2 conjugated to KLH. The primary immunisation was followed by 8 boosters at monthly intervals, using standard techniques for the raising of polyclonal antibodies. Titre was established via immunohistochemistry, using rat and ovine median eminence tissue and the ability to block antibody with Peptide 1 was determined on histological sections. Specificity was tested using a range of hypothalamic peptides. […] 9, which consists of KVKEFNNI (SEQ ID NO. 21). Purification of the antibody using the peptide SEQ ID NO: 9 immobilised on a column enriches for antibody to the C-terminal epitope. The goat antibody has been used in connection with an assay based on adult rat bone marrow stem cells in culture, with α-MEMS as cell medium and manual assessments of cell numbers and morphology using time-lapse video photography over 24 h.
as §1

[6] = system: MCF 7 human breast cancer cells; assay: IGF1-stimulated cell growth, Coulter counter; assay type: cell-based; details: IGF1 50 ng/ml, 72 hours
Protocol: Experiments were conducted to assess the effects of a range of doses of the micrin peptide fragment with 20 amino acids (SEQ ID NO: 19) on the IGF1-stimulated growth of MCF 7 human breast cancer cells. Cells were plated at 2×10^4 per well in 2 cm^2 wells in Dulbecco's Modified Eagle's Medium containing 10% foetal calf serum, antibiotics and a stabilised substitute for glutamine (Glutamax, InVitrogen, UK). After an overnight culture period, the cells were washed with fresh medium and this was replaced with medium containing IGF1 (50 ng/ml) in the presence and absence of a range of concentrations (between 0.04 and 4000 nmol) of the peptide fragment in triplicate wells, and compared to triplicate wells containing medium only (with no supplementary IGF1) as controls. The cells were incubated for 72 hours in a humidified atmosphere at 37° C. under 5% carbon dioxide/95% air. The medium was discarded, and the cell layer washed with buffered saline before being incubated with trypsin/EDTA to dislodge the cells. The cell suspension was diluted with medium to stop the tryptic action and then transferred to tubes and subjected to centrifugation. The pellet was resuspended in Isoton and samples counted with a Coulter counter.

[7] = system: human umbilical vascular endothelial cells (HUVECs); assay: AngioKit angiogenesis assay, venule length; assay type: cell-based; details: FIG. 6; suramin 20 μM; micrin sample T2
Protocol: Micrin and micrin free control samples were produced using the method described in Example 7.a with 120 ml sheep follicular fluid as the source material. These were diluted in AngioKit medium and stored at 4° C. for the duration of the assay. Samples were tested as follows: • 1) untreated control—medium alone • 2) positive control—medium containing 2 ng/ml VEGF • 3) negative control—medium containing 20 μM suramin (a potent inhibitor of angiogenesis) • 4) micrin-free control • 5) micrin test material
Comparison of venule length was conducted using the ‘Angiosys’ image analysis system developed specifically for the analysis of images produced using the AngioKit. Four images were taken from predetermined positions in the well containing each specimen. The results obtained with micrin are marked T2, those with micrin-free control T1.

ovine pituitary cells [8] = assay: Prolactin production by pituitary cells in vitro, RIA; assay type: cell-based
Protocol: Adult ewe pituitaries were collected into phosphate buffered saline (PBS) on ice. The external dura and neurohypophyseal tissue were removed and the remaining tissue was sliced thinly using tweezers and scalpel, and minced using crossed scalpel blades (<1 mm pieces). The mince was washed in 0.1% bovine serum albumen (BSA)/PBS. The tissue was allowed to settle and the liquid aspirated. The washing, settling and aspiration were repeated.
A standard cell dispersion was conducted by adding the tissue to a filtered solution of collagenase in BSA/PBS (0.02-0.03 g in 10 ml) plus Dnase, hyaluronidase, pancreatin and trypsin inhibitor and incubating in a shaking waterbath at 37° C. for 25 minutes. The resultant suspension was titurated with a pipette and returned to the shaking waterbath for 5 minutes. The suspension was titurated again and filtered through a mesh, washing with BSA/PBS. The suspension was added to a 50 ml centrifuge tube and spun at 1500 rpm for 5 minutes. The supernatant was removed and the cell pellet resuspended in 50 ml BSA/PBS.
A sample of the cell suspension (50 μl) was mixed 1:1 with trypan blue in a microcentrifuge tube and viable cells were counted on a haemocytometer, to give viable cell concentration.
The cell suspension was recentrifuged and resuspended in 3-5 ml of M199. […]

ovine pituitary cells [9] = assay: LH secretion by pituitary cells in vitro; assay type: cell-based; details: 24 h, 0.1-10 μg/L, dose dependent, vs scrambled peptide, data not shown
Protocol: Both effects are dependent on dose across the range used, 0.1-10 μg/L, and are statistically significant. Comparison was with a control peptide having the same amino acids in a randomly scrambled sequence (data not shown)

[10] = system: compensatory renal growth; details: procedures as in 7c; Haylor et al 2009; cited from earlier work

MKPLTG
effect on lifespan (Caenorhabditis elegans [1]): without altering lifespan
increase in fecundity (number of offspring) (Caenorhabditis elegans [1]): 50%
ascending order of anti-proliferative activity [2]: IEPVFT (SEQ ID NO: 30)<MKPLTG (SEQ ID NO. 26)<LEPVMT (SEQ ID NO: 31)<LQPAHV (SEQ ID NO: 27)
anti-proliferative activity (human dental pulp cells): minimally anti-proliferative

CC[C@@]1(O)C(=O)OCc2c1cc1n(c2=O)Cc2cc3ccccc3nc2-1 [Camptothecin]
Viability (% micrin-free control) PC3 (prostate cancer) [3]: 43.9 % micrin-free control
Viability (% micrin-free control) MCF-7 (breast cancer) (MCF7 breast cancer cells): 56.2 % micrin-free control

KLKMNGKN (SEQ ID NO: 29) to the N-terminus of IEPVFT: IEPVFT with KLKMNGKN added to its N-terminus (KLKMNGKNIEPVFT)
effect on fecundity (Caenorhabditis elegans [4]): anti-fecundity agent

MKPLTGKVKEFNNIKGFGVI [SEQ ID NO: 19]
reduction in cell numbers ([5]; 24 h, due to apoptosis): about 80%
cell count compared to IGF1 alone ([6]; 0.04 nmol peptide): noticably decreases the cell count
cell count compared to controls ([6]; 40 nmol peptide): reduces the cell count to below that in the controls
effect on IGF1-stimulated cell growth ([6]; 0.04-4000 nmol, FIG. 7): suppresses the effect of IGF1 in a dose-dependent manner

fluorescently tagged version of the micrin peptide fragment: fluorescently tagged version of the micrin peptide fragment SEQ ID NO: 9 (MKPLTGKVKEFNNI; also: fluorescent tag, position not given here)
tissue accumulation (Caenorhabditis elegans [1]; in vivo): accumulate preferentially in genital tissue

LQPAHV
effect on lifespan (Caenorhabditis elegans [1]): significantly to prolong lifespan
increase in fecundity (number of offspring) (Caenorhabditis elegans [1]): 71%
ascending order of anti-proliferative activity [2]: IEPVFT (SEQ ID NO: 30)<MKPLTG (SEQ ID NO. 26)<LEPVMT (SEQ ID NO: 31)<LQPAHV (SEQ ID NO: 27)
reduction of cell numbers [2]: about 32%

Cc1ccc(C(=O)Nc2ccc(S(=O)(=O)O)c3cc(S(=O)(=O)O)cc(S(=O)(=O)O)c23)cc1NC(=O)c1cccc(NC(=O)Nc2cccc(C(=O)Nc3cc(C(=O)Nc4ccc(S(=O)(=O)O)c5cc(S(=O)(=O)O)cc(S(=O)(=O)O)c45)ccc3C)c2)c1 [Suramin, suramin]
HUVEC venule length [7]: statistically significant decrease in HUVEC venule length

1KPLTGKVKEFNNI [SEQ ID NO:1, 14 mer wherein 1 is S, D or M]
anti-proliferative activity (human dental pulp cells): more so

IEPVFT
effect on lifespan (Caenorhabditis elegans [1]): without having a significant effect on lifespan
increase in fecundity (number of offspring) (Caenorhabditis elegans [1]): 79%
ascending order of anti-proliferative activity [2]: IEPVFT (SEQ ID NO: 30)<MKPLTG (SEQ ID NO. 26)<LEPVMT (SEQ ID NO: 31)<LQPAHV (SEQ ID NO: 27)

KVKEFNNI
anti-proliferative activity (human dental pulp cells): most anti-proliferative of all
reduction of cell numbers (human dental pulp cells; 5 μM, over 7 days): about 17%

LEPVMT
ascending order of anti-proliferative activity [2]: IEPVFT (SEQ ID NO: 30)<MKPLTG (SEQ ID NO. 26)<LEPVMT (SEQ ID NO: 31)<LQPAHV (SEQ ID NO: 27)

MKPLTGKVKEFNNI [SEQ ID NO: 9]
increase in cell number ([5]; 10 μg/ml of medium, 24 h, untreated control cells increased by 50%): under 20%
effect of co-administration on the antibody's reduction of the negative influence ([5]; with goat antibody and rat hypothalamus extract): reversed by co-administration
prolactin level in medium (ovine pituitary cells [8]; Experiment 1: 1 ng/well, 24 hours, n=4, control 92.2±13.9): 67.1 ± 12.6 ng/mL
prolactin level in medium (ovine pituitary cells [8]; Experiment 2: 1 μg/ml, 2 hours, control 8.30±1.16, p<0.05): 5.18 ± 1.52 ng/mL
LH production (ovine pituitary cells [9]; cells provided with GnRH, GHRH and TRH): reduction in LH production
LH secretion (ovine pituitary cells [9]; hypothalamic regulators omitted): increase the secretion of LH
effect on lifespan (Caenorhabditis elegans [1]): increased by about a fifth
increase in fecundity (number of offspring) (Caenorhabditis elegans [1]): > 40%
effect on compensatory renal growth [10]: inhibits compensatory renal growth

From patent publication US8367801B2, “Proteinaceous compounds” (Endocrine Pharmaceuticals Limited, priority 2008, dated 2013)
